The values below come from the Deep4Chem optical property database.

The data set is described as follows: solvent given as SMILES.

`NS(=O)(=O)c1ccc(N2N=C(c3ccc(O)cc3)CC2c2ccc([N+](=O)[O-])cc2)cc1` (configuration not stated): the fluorescence lifetime is, setting by setting: (in C1CCOC1) 2.19 ns; (in C1COCCO1) 2.06 ns; (in CC#N) 2.21 ns; (in CC(C)O) 1.42 ns; (in CCO) 1.31 ns; (in CCOC(C)=O) 2.37 ns. The fluorescence lifetime by setting is: (in CN(C)C=O) 2.51 ns; (in CO) 1.4 ns; (in CS(C)=O) 2.43 ns; (in O) 2.94 ns.
The compound `CC(C)c1cc(C(C)C)c(-c2nnc(-c3ccc(-n4c5ccccc5c5ccccc54)cc3)o2)c(C(C)C)c1` yielded a fluorescence lifetime (in CCO) of 2.19 ns.
For the compound `c1cc2c3ccc[n+]4cccc(c5ccc[n+](c1)c25)c34`, the fluorescence lifetime is, setting by setting: (in CC#N) 7.4 ns; (in CS(C)=O) 4.4 ns; (in C[N+](=O)[O-]) 6.2 ns; (in O) 6.8 ns.
Consider `COc1nc(Nc2ccc3c4c(cccc24)C(=O)c2ccccc2-3)nc(OC)n1`, for which the fluorescence lifetime was 9.2 ns (in CC#N); 8.5 ns (in CC(C)=O); 7.7 ns (in CC(C)O); 3.7 ns (in CCCCOCCCC); 7.3 ns (in CCOC(C)=O); 4.9 ns (in CCOCC). In addition, the fluorescence lifetime (in CO) is 7.4 ns; the fluorescence lifetime (in Cc1ccccc1) amounted to 5.6 ns; the fluorescence lifetime (in Clc1ccccc1) worked out at 7.4 ns; the fluorescence lifetime (in N#Cc1ccccc1) amounted to 7 ns; the fluorescence lifetime (in O=C1CCCCC1) stood at 7.4 ns.
In turn, `c1ccc(N(c2ccccc2)c2cc3c4c(c2)N(c2ccccc2)c2cc5c(cc2B4c2ccccc2N3c2ccccc2)B2c3ccccc3N(c3ccccc3)c3cc(N(c4ccccc4)c4ccccc4)cc(c32)N5c2ccccc2)cc1` yielded a fluorescence lifetime (in Cc1ccccc1-c1cccc(Oc2cc3c4c(c2)Oc2cc(-c5ccccc5C)ccc2B4c2ccc(-c4ccccc4C)cc2O3)c1) of 4.1 ns.
For `COc1ccc(Oc2ccc3c4c(cccc24)C(=O)N(c2c(C(C)C)cccc2C(C)C)C3=O)cc1`, the fluorescence lifetime (in ClCCl) stood at 4.9 ns.
The compound `Cc1ccc(-c2ccc(/C=C/c3ccc(C#N)cc3)cn2)nc1` showed a fluorescence lifetime (in CC#N) of 0.6 ns.
Regarding `COc1ccc(-c2cc3c(s2)c(C(C)=O)cc(=O)n3Cc2ccccc2)cc1`, under “in ClCCl”, the fluorescence lifetime was 1.94 ns.
In turn, `c1ccc2c(c1)cc(-c1cc(-c3nccs3)nc(-c3nccs3)c1)c1ccccc12` displayed a fluorescence lifetime (in CC#N) of 1.94 ns, a fluorescence lifetime (in CCCCCC) of 5 ns, a fluorescence lifetime (in CO) of 1.79 ns and a fluorescence lifetime (in ClC(Cl)Cl) of 2.54 ns.
`CCOC(=O)/N=c1/oc2cc(OC)ccc2cc1C#N` showed a fluorescence lifetime (in ClCCl) of 0.8 ns.
`CNc1cccc2c1C(=O)c1ccccc1C2=O`: the fluorescence lifetime is 0.446 ns (in C1CCC2CCCCC2C1); 0.443 ns (in C1CCCCC1); 0.445 ns (in CC1CCCCC1); 0.204 ns (in CC#N); 0.444 ns (in CCC(C)CC); 0.451 ns (in CCCCCC). For the same compound, the fluorescence lifetime (in CCOC(C)=O) is 0.253 ns.
As for `Cc1ccc(-c2ccc(/C=C/c3cccn3C)cn2)nc1`, the fluorescence lifetime runs as follows: (in C1COCCO1) 0.59 ns; (in CC#N) 0.51 ns; (in CCCCCC) 0.86 ns; (in CCO) 0.92 ns; (in CN(C)C=O) 0.65 ns; (in CO) 1 ns. For the same compound, the fluorescence lifetime reads like this: (in CS(C)=O) 0.64 ns; (in Cc1ccccc1) 0.56 ns; (in ClC(Cl)Cl) 0.62 ns; (in c1ccccc1) 0.51 ns.
In turn, `OB(O)c1ccc(-c2ccc(N(c3ccccc3)c3ccccc3)cc2)cc1` registered a fluorescence lifetime (in C1CCCCC1) of 1.59 ns; a fluorescence lifetime (in C1CCOC1) of 2.14 ns; a fluorescence lifetime (in CC#N) of 2.24 ns; a fluorescence lifetime (in CCO) of 2.39 ns; a fluorescence lifetime (in CCOC(C)=O) of 2.21 ns; a fluorescence lifetime (in CCOCC) of 1.69 ns. Besides, under “in CO”, the fluorescence lifetime is 2.97 ns.
In turn, `[BH3-][P+]1(c2ccccc2)c2ccccc2-c2sc3ccccc3c21` (configuration not stated) registered a fluorescence lifetime (in ClCCl) of 3 ns.
Same read-out and setting: next, `CCCCC(CC)COc1ccc2nc(-c3ccc(-c4c(C)noc4C)s3)sc2c1` (configuration not stated): 1.8 ns.
Compound `O=C1c2cccc3cc4ccccc4c(c23)C(=O)N1Cc1ccccn1` showed a fluorescence lifetime (in CCO) of 15.2 ns.
For `O=P1(c2ccccc2)C(c2ccccc2)=Cc2cc3ccccc3cc21` (configuration not stated), the fluorescence lifetime (in ClCCl) worked out at 3.5 ns.
`N#CC1=c2cc3c4c(c2Oc2c1cc1c5c2CCCN5CCC1)CCC[N+]=4CCC3`: under “in CCO”, the fluorescence lifetime turned out to be 1.93 ns.
On to `Cc1cc(=O)c2ccc(N)cc2o1`, for which the fluorescence lifetime runs as follows: (in C1CCOC1) 3.22 ns; (in C1COCCO1) 0.48 ns; (in CC#N) 0.59 ns; (in CC(C)O) 4.56 ns; (in CCCCO) 4.01 ns; (in CCCO) 4.68 ns. For the same compound, the fluorescence lifetime (in CCOC(C)=O) was found to be 0.94 ns; the fluorescence lifetime (in CN(C)C=O) is 3.37 ns; the fluorescence lifetime (in CO) was found to be 4.45 ns; the fluorescence lifetime (in CS(C)=O) was found to be 0.8 ns; the fluorescence lifetime (in ClC(Cl)Cl) was 3.67 ns; the fluorescence lifetime (in O) stood at 5.52 ns.
Take `CN(C)c1ccc(-c2cc(-c3cccs3)nc(-c3ccccc3)n2)cc1`: the fluorescence lifetime (in ClC(Cl)Cl) turned out to be 7 ns.
`Nc1ccc(/C=C/c2ccc3ccccc3c2)cc1`: the fluorescence lifetime reads like this: (in CC#N) 0.23 ns; (in CCCCCC) 0.2 ns.
In turn, `CCCCCCCCCC[n+]1cc2ccc3c[n+](CCCCCCCCCC)cc4ccc(c1)c2c34` showed a fluorescence lifetime (in CC#N) of 9.5 ns.
For the compound `Cc1nn(-c2ccccc2)c(C2=NN(c3ccc(Br)cc3)[C@@H](c3ccccc3)[C@@H]2c2ccccc2)c1C#N`, the fluorescence lifetime was determined as 4.73 ns (in C1CCCCC1); 5.04 ns (in C1CCOC1); 5.21 ns (in C1COCCO1); 5.05 ns (in CC#N); 4.64 ns (in CCCCCCC); 4.53 ns (in CCO). For the same compound, the fluorescence lifetime runs as follows: (in CN(C)C=O) 4.95 ns; (in CO) 3.74 ns; (in O) 2.6 ns; (in OCCO) 3.59 ns.
As to `O=C1c2ccccc2-c2ccccc21`, the fluorescence lifetime (in C1CCCCC1) is 0.4 ns, the fluorescence lifetime (in CC#N) turned out to be 17.8 ns, the fluorescence lifetime (in CCO) stood at 1.9 ns and the fluorescence lifetime (in c1ccccc1) worked out at 2.8 ns.
On to `CCCCN1C(=O)c2cc(Br)c3c4c(Br)cc5c6c(cc(Br)c(c7c(Br)cc(c2c37)C1=O)c64)C(=O)N(CCCC)C5=O`, for which the fluorescence lifetime (in ClC(Cl)Cl) came out at 2.9 ns.
Turning to `C(=C\c1nc2ccccc2[nH]1)/c1ccc(/C=C/c2nc3ccccc3[nH]2)cc1`, the fluorescence lifetime by setting is: (in C1CCOC1) 1.02 ns; (in CC#N) 1.12 ns; (in CC(C)=O) 1.07 ns; (in CN(C)C=O) 0.997 ns; (in CO) 1.06 ns; (in CS(C)=O) 0.919 ns.
As to `CCCCCCCCCCCCOc1cc2cc(N(C)C)ccc2cc1C#N`, the fluorescence lifetime (in CS(C)=O) is 5.5 ns.
In the case of `COc1ccc(C2=C3C=c4c(oc5cc6c(cc45)[C@H]4CC[C@]5(C)C(=O)CC[C@H]5[C@@H]4CC6)=[N+]3[B-](F)(F)n3c2cc2c4cc5c(cc4oc23)CC[C@@H]2[C@@H]5CC[C@]3(C)C(=O)CC[C@@H]23)cc1`, the fluorescence lifetime is 3.94 ns (in CCOC(C)=O), 4.04 ns (in CCOCC) and 3.71 ns (in CO).
For the compound `COC(=O)c1ccc(C2=C(/C=C/c3ccc(OC)cc3)O[B-](F)(F)[O+]=C2/C=C/c2ccc(OC)cc2)cc1`, the fluorescence lifetime (in ClCCl) was determined as 1.34 ns.
As for `CCCCCCCCN1c2ccc(C#Cc3ccc(OC)cc3)cc2Sc2cc(C=O)ccc21`, the fluorescence lifetime (in C1CCOC1) turned out to be 7.1 ns; the fluorescence lifetime (in CC#N) amounted to 6.03 ns; the fluorescence lifetime (in CCCCCC) was 6.46 ns; the fluorescence lifetime (in CO) is 5.08 ns; the fluorescence lifetime (in CS(C)=O) was 6.6 ns; the fluorescence lifetime (in Cc1ccccc1) stood at 7.42 ns. Under “in ClC(Cl)Cl”, this compound came in with a fluorescence lifetime of 5.65 ns.
With `Cc1ccc2c(c1)C1(c3ccccc3Oc3ccccc31)c1cc(C)ccc1N2c1ccc(-c2ncccn2)cc1`, the fluorescence lifetime (in O=P(c1ccccc1)(c1ccccc1)c1ccc2oc3ccc(P(=O)(c4ccccc4)c4ccccc4)cc3c2c1) stood at 11 ns.
On to `CN(C)c1ccc(C2=Cc3c4ccccc4cc[n+]3[B-](F)(F)O2)cc1`, for which, under “in ClC(Cl)Cl”, the fluorescence lifetime turned out to be 2.34 ns.
For the setting “in O”, `Cc1cc(=O)oc2cc(/[NH+]=C/C=C3/C=C(C(=O)O)NC(C(=O)O)C3)ccc12` (configuration not stated) gave a fluorescence lifetime of 0.038 ns.
The compound `Cc1cc(C)c(B(c2c(C)cc(C)cc2C)c2cc3ccc4ccccc4c3c3c2cc(N(C)C)c2ccccc23)c(C)c1` showed a fluorescence lifetime (in C1CCCCC1) of 8.8 ns.
`COc1ccc(-c2csc(/C(C#N)=C/c3ccc(Cl)cc3)n2)cc1` registered a fluorescence lifetime (in CC#N) of 3.61 ns.
`COc1cc2c(cc1-c1ccc(N(C)C)cc1)Cc1c3c(c4c(c1-2)-c1cc(OC)c(-c2ccc(N(C)C)cc2)cc1C4)C(=O)N(CCC(C)C)C3=O` registered a fluorescence lifetime (in C1CCOC1) of 1.01 ns.
Take `COc1ccc(-c2nc3c(ccc4ccccc43)oc2=O)cc1`: under “in c1ccccc1”, the fluorescence lifetime is 2.1 ns.
`CN(C)CCCN1c2ccccc2CCc2ccccc21`: the fluorescence lifetime runs as follows: (in CC#N) 0.85 ns; (in CO) 0.54 ns; (in O) 1.12 ns.
Under “in C1CCOC1”, `Clc1cnc2nn3ccccc3c2n1` yielded a fluorescence lifetime of 6.2 ns.
For the compound `CCC1=C(C)C2=C(C)c3cccn3[B-](F)(F)[N+]2=C1C`, the fluorescence lifetime is, setting by setting: (in C1CCCCC1) 5.46 ns; (in CC(C)=O) 5.66 ns; (in CCO) 5.73 ns; (in CCOC(C)=O) 5.57 ns; (in CO) 5.78 ns; (in OCC(F)(F)F) 6.17 ns.
On to `c1ccc2c(-c3cc(-c4nccs4)nc(-c4nccs4)c3)cccc2c1`, for which the fluorescence lifetime worked out at 1.96 ns (in CC#N), 2.24 ns (in CCCCCC), 1.86 ns (in CO) and 2.19 ns (in ClC(Cl)Cl).
`c1ccc2c(c1)CCc1ccccc1N2c1c2ccccc2cc2ccccc12`: the fluorescence lifetime (in Cc1ccccc1) is 41 ns.
Under “in C1CCOC1”, `COc1ccc(C(=Cc2ccc(C=O)cc2)c2ccc(OC)cc2)cc1` registered a fluorescence lifetime of 6.7 ns.
Where the note is “in CC#N”, `N#C/C(=C\c1ccc(C(F)(F)F)cc1)c1nc(-c2ccc(Cl)cc2)cs1` registered a fluorescence lifetime of 1.2 ns.
